Data taken from patent US8865894B2, “Oxazolidin-2-one compounds and uses thereof” (Novartis AG, priority 2012, dated 2014).
pIC50: −log10 of the molar value. Read-outs that look alike come from different tables or passages of the source.

What was measured:
human PI3Kα = target: T1, human PI3Kα (Homo sapiens, UniProt P42336); assay: Biochemical PI3Kalpha (KinaseGlo luminescent kinase assay)
T1 construct: made in house
Experimental: (§1) Test compounds were dissolved in DMSO (10 mM) and transferred into 1.4 mL flat bottom or V-shaped Matrix tubes carrying a unique 2D matrix chip by individual Novartis compound hubs. The numbers of these chips were distinctively linked to Novartis Pharma Numbers. The stock solutions were stored at −20° C. if not used immediately. For the test procedure the vials were defrosted and identified by a scanner whereby a working sheet was generated that guided the subsequent working steps.
(§2) Compounds were either manually diluted in DMSO for individual experiments (96 wells enabling 10 cpds at 8 (single points) concentrations) as described in or prepared as described below if tested for profiling in 384-wells. This format enabled the assay of maximally 40 individual test compounds at 8 concentrations (single points) including 4 reference compounds. The dilution protocol included the production of “pre-dilution plates”, “master plates” and “assay plates”.
(§3) 96 polypropylene well plates were used as pre-dilution plates. A total of 4 pre-dilution plates were prepared including 10 test compounds each on the plate positions A1-A10, one standard compound at A11 and one DMSO control at A12. Programs have been written to run these pipetting steps on the HamiltonSTAR robots.
(§4) Identical “assay plates” were then prepared by pipetting 50 nL each of compound dilutions of the “master plates” into 384-well “assay plates”. The compounds were mixed with 4.5 μL of assays components plus 4.5 μL enzyme corresponding to a 1:181 dilution enabling the final concentration of 10, 3.0, 1.0, 0.3, 0.1, 0.03, 0.01 and 0.003 μM, respectively. The preparation of the “master plates” was handled by the Matrix PlateMate Plus robot and replication of “assay plates” by the HummingBird robot.
(§5) Catalytically active human PI3Kα, PI3Kβ, PI3Kδ, and mTOR were cloned, expressed and purified as described (Maira S M, Stauffer F, Brueggen J, Furet P, Schnell C, Fritsch C, Brachmann S, Chène P, de Pover A, Schoemaker K, Fabbro D, Gabriel D, Simonen M, Murphy L, Finan P, Sellers W, García-Echeverría C (2008), Mol Cancer Ther. 7:1851-63 and Maira S M, Pecchi S, Brueggen J, Huh K, Schnell C, Fritsch C, Nagel T, Wiesmann M, Brachmann S, Dorsch M, Chène P, Schoemaker K, De Pover A, Menezes D, Fabbro D, Sellers W, García-Echeverría C, Voliva C F (2011), Mol. Cancer Ther. accepted).
(§6) The luminescence-based ATP detection reagent KinaseGlo was obtained from Promega, (Cat. No. V6714, Lot No. 236161) through Catalys, Wallisellen, Switzerland. (L-alpha-phosphatidylinositol (PI), Liver, Bovine) were obtained from Avanti Polar Lipid (Cat. No. 840042C, Lot#LPI-274), Phosphatidylinositol-4,5-bisphosphate (PIP(4,5)2 (Avanti, Cat. No. 840046×) or L-α-phosphatidylinositol (PI) was obtained from Avanti Polar Lipid (Cat. No. 840042C, Lot#LPI-274). L-α-Phosphatidylserine (PS) was from Avanti Polar Lipid (Cat. No. 840032C), n-OctylGlucoside Avanti Polar Lipid (Cat. No. 10634425001). Luminescence is a well established readout to determine ATP concentrations and can thus be used to follow the activity of many kinases regardless of their substrate. The Kinase Glo Luminescent Kinase Assay (Promega, Madison/Wis., USA) is a homogeneous HTS method of measuring kinase activity by quantifying the amount of ATP remaining in solution following a kinase reaction.
(§7) 50 nL of compound dilutions were dispensed onto black 384-well low volume Non Binding Styrene (NBS) plates (Costar Cat. No. NBS#3676) as described in section 8.2. L-α-phosphatidylinositol (PI), provided as 10 mg/ml solution in methanol, was transferred into a glass tube and dried under nitrogen beam. It was then resuspended in 3% OctylGlucoside by vortexing and stored at 4° C. 5 μL of a mix of PI/OG with the PI3Ka and Pi3Kb subtypes were added. Kinase reactions were started by addition of 5 μl of ATP-mix containing in a final volume 10 μL 10 mM TRIS-HCl pH 7.5, 3 mM MgCl2, 50 mM NaCl, 0.05% CHAPS, 1 mM DTT and 1 μM ATP, and occurred at room temperature.

human PI3Kβ = target: T2, human PI3Kβ (Homo sapiens, UniProt P42338); assay: Biochemical PI3Kbeta (KinaseGlo luminescent kinase assay); settings: 1 μM ATP, mean of n measurements, read-out: PI3Kb/ IC50
T2 construct: made in house
Experimental: as §1, §2, §3, §4, §5, §6, §7

mTOR = target: T3, mTOR (Mus musculus, UniProt Q9JLN9); assay: Cellular assay mTOR (phospho-T389 S6K1 SureFire in TSC1-/- MEF cells); type: cell-based
T3 construct: endogenous in cells; host or cells: TSC1-/- MEF (mouse embryo fibroblasts)
Description: A cell based assay (384-well format) was developed for determination of compound effects on cellular mTOR kinase activity in MEF (mouse embryo fibroblasts) cells derived from mice lacking TSC1 (Tuberosclerosis Complex1) a potent suppressor of mTOR kinase activity. Due to lack of TSC1 the mTOR kinase is constitutively activated resulting in permanent phosphorylation of Thr 389 of S6 kinase 1 (S6K1) which is one of the downstream targets of mTOR.
Using a SureFire Kit that enables to determine the phosphorylation of Thr389 on the S6K1 an assay was developed, validated and implemented in the Alpha-Screen format that allows the quantitative determination of phospho-T389 of S6K1 in cell lysates. […] These were in agreement with those values obtained with the biochemical mTOR ATP-binding assay enabling a quantitative comparison of potency of mTOR inhibitors.
TSC1−/− MEFs cells (Kwiatkowski, D. J., Zhang, H., Bandura, J. L., Heiberger, K. M., Glogauer, M., el-Hashemite, N., and Onda, H. (2002) Hum. Mol. Genet. 11, 525-534) were cultured in DMEM high glucose medium supplemented with 10% FBS (Invitrogen), 2 mM Glutamine and 1% (w/v) Penicillin/Streptomycin at 37° C., 5% CO2.
The SureFire kit for determination of P70S6kinase phosphorylation was purchased from Perkin Elmer (p70S6K p-T389, #TGR70S50K) and the assay was performed according to the instructions of the supplier and according to the generic method for SureFire assays. Shortly, 5 μL cell lysate per well were transferred to 384-well white proxy-plates (for luminescent readout) and mixed with […] and […] (final volume: 12 μL). After 3 h incubation in the dark at RT luminescence was read with the Envision Reader (Perkin Elmer). Untreated cells were used as control (high control) and cells treated with 3 μM BEZ235 were used as low control. The assay window between the signals obtained for the high and the low controls were defined as 100% and compound effects were expressed as percent inhibition. IC50 values were calculated from the dose response curves by graphical extrapolation.

[1] = biochemical, 1 μM ATP, mean of n measurements
[2] = TSC1-/- MEF cells, read-out: mTOR S6K(T389)_TSC1ko/ IC50
[3] = biochemical, 1 μM ATP, mean of n measurements, read-out: PI3Ka/ IC50

T2 sequence (P42338 2-1070 limits assumed): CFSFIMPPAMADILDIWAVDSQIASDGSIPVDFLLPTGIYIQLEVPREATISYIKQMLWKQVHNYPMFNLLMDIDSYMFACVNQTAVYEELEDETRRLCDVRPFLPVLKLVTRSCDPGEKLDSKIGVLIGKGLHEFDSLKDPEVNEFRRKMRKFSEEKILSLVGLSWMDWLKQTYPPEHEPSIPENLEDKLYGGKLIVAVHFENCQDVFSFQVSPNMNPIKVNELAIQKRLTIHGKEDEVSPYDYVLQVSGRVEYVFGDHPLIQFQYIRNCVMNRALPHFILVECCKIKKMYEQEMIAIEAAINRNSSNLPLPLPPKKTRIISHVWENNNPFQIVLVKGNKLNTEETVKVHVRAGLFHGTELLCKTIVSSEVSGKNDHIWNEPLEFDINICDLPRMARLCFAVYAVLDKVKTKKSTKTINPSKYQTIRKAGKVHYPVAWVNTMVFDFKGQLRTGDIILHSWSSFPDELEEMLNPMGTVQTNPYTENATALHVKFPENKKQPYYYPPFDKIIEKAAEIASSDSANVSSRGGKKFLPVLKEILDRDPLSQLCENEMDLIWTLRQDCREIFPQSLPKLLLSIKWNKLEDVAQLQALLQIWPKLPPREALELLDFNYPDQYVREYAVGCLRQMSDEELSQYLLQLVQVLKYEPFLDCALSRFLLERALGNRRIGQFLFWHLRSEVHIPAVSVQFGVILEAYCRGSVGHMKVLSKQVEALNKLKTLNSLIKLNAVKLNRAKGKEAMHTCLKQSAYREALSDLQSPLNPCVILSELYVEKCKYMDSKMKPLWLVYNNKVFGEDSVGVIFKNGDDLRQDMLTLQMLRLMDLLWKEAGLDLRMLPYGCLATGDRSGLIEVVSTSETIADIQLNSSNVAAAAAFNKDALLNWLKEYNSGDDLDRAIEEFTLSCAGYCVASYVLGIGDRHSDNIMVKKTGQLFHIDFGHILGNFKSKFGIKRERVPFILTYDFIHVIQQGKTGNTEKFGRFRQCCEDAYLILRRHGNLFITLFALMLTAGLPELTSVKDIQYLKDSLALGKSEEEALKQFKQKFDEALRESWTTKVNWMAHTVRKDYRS
T1 sequence (P42336 with tags, fused parts or gaps limits assumed): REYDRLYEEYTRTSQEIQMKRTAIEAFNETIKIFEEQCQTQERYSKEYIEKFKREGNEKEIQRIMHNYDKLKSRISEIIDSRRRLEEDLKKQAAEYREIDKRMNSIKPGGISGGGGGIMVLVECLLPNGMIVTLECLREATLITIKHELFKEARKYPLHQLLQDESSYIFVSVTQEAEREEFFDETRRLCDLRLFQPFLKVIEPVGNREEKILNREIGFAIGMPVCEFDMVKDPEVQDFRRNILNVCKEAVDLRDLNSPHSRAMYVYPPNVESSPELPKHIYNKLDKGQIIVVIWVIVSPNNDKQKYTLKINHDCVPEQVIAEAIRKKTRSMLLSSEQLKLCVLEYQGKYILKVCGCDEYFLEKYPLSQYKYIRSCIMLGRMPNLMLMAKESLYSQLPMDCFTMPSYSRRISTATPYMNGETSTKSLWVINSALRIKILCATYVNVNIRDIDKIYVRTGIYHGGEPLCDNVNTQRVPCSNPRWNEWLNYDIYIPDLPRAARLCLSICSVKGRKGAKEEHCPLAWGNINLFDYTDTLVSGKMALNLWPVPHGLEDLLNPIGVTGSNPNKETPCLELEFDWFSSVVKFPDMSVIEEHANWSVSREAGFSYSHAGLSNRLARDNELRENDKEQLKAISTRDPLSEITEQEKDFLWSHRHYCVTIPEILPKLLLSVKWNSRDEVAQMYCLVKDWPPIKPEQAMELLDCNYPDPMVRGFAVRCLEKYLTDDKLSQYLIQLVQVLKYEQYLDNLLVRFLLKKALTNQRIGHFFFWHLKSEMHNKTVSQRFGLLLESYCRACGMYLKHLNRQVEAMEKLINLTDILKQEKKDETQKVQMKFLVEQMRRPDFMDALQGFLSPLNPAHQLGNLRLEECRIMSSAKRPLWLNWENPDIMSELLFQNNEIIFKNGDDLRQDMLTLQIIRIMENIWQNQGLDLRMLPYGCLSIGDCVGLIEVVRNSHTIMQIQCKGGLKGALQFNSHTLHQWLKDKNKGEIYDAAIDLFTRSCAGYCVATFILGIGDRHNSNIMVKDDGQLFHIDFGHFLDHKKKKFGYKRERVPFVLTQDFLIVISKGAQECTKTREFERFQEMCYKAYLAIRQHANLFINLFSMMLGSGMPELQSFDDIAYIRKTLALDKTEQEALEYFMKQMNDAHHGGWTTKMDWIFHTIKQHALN

## Nc1ncc(-c2cc(N3C[C@@H](CO)OC3=O)nc(N3CCOCC3)n2)c(C(F)(F)F)n1 [Example 14, (S)-3-(2′-Amino-2-morpholin-4-yl-4′-trifluoromethyl-[4,5′]bipyrimidinyl-6-yl)-5-hydroxymethyl-oxazolidin-2-one]
Human PI3Kα; [1]
  PI3Ka/ IC50: 0.057 umol I-1
Human PI3Kβ
  pIC50: 7.74
mTOR; [2]
  pIC50: < 5.64

## C[C@H]1[C@@H](CCO)OC(=O)N1c1cc(-c2cnc(N)nc2C(F)(F)F)nc(N2CCOCC2)n1 [Example 23, (4S,5R)-3-(2′-Amino-2-morpholino-4′-(trifluoromethyl)-[4,5′-bipyrimidin]-6-yl)-5-(2-hydroxyethyl)-4-methyloxazolidin-2-one]
Human PI3Kα; [1]
  PI3Ka/ IC50: 0.006 umol I-1
Human PI3Kβ
  pIC50: 7.96
mTOR; [2]
  pIC50: 5.95

## COC[C@H]1COC(=O)N1c1cc(-c2cnc(N)nc2C(F)(F)F)nc(N2CCOCC2)n1 [Example 5, (S)-3-(2′-Amino-2-morpholin-4-yl-4′-trifluoromethyl-[4,5′]bipyrimidinyl-6-yl)-4-methoxymethyl-oxazolidin-2-one]
Human PI3Kα; [1]
  PI3Ka/ IC50: 0.011 umol I-1
Human PI3Kβ
  pIC50: 7.96
mTOR; [2]
  pIC50: 5.85

## C[C@H]1COCCN1c1nc(-c2cnc(N)nc2C(F)(F)F)cc(N2C(=O)OC[C@@H]2C)n1 [Example 13, (S)-3-[2′-Amino-2-((S)-3-methyl-morpholin-4-yl)-4′-trifluoromethyl-[4,5′]bipyrimidinyl-6-yl]-4-methyl-oxazolidin-2-one]
Human PI3Kα; [1]
  PI3Ka/ IC50: 0.203 umol I-1
Human PI3Kβ
  pIC50: 6.84
mTOR; [2]
  pIC50: 5.71

## Nc1ncc(-c2cc(N3C(=O)OC4C(O)CCC43)nc(N3CCOCC3)n2)c(C(F)(F)F)n1 (single isomer, unassigned) [Example 22A]
Human PI3Kα; [3]
  pIC50: 8.15
Human PI3Kβ
  pIC50: 7.07
mTOR; [2]
  pIC50: 5.67

## C[C@H]1C(CC(C)(C)O)OC(=O)N1c1cc(-c2cnc(N)nc2C(F)(F)F)nc(N2CCOCC2)n1 (mixture of isomers) [Example 26, (4S,5R)- and (4S,5S)-3-(2′-amino-2-morpholino-4′-(trifluoromethyl)-[4,5′-bipyrimidin]-6-yl)-5-(2-hydroxy-2-methylpropyl)-4-methyloxazolidin-2-one]
Human PI3Kα; a different, separate measurement, read-out: PI3Ka IC50, different, separate measurement (footnote)
  pIC50: > 8.52
Human PI3Kα; [3]
  pIC50: 8.30
Human PI3Kβ
  pIC50: 6.91
mTOR; [2]
  pIC50: 6.07

## C[C@H]1OC(=O)N(c2cc(-c3cnc(N)nc3C(F)(F)F)nc(N3CCOCC3)n2)[C@H]1CO [Example 18, (4S,5R)-3-(2′-Amino-2-morpholin-4-yl-4′-trifluoromethyl-[4,5′]bipyrimidinyl-6-yl)-4-hydroxymethyl-5-methyl-oxazolidin-2-one]
Human PI3Kα; [1]
  PI3Ka/ IC50: 0.009 umol I-1
Human PI3Kβ
  pIC50: 8.40
mTOR; [2]
  pIC50: 6.10

## [2H]C1([2H])OC([2H])([2H])C([2H])([2H])N(c2nc(-c3cnc(N)nc3C(F)(F)F)cc(N3C(=O)O[C@H](C)[C@@H]3CO)n2)C1([2H])[2H] [Example 8]
Human PI3Kα; [1]
  PI3Ka/ IC50: 0.013 umol I-1
Human PI3Kβ
  pIC50: 8.40
mTOR; [2]
  pIC50: 6.00

## C[C@@H]1OC(=O)N(c2cc(-c3cnc(N)nc3C(F)(F)F)nc(N3CCOCC3)n2)[C@H]1CO [Example 6]
Human PI3Kα; [1]
  PI3Ka/ IC50: 0.013 umol I-1
Human PI3Kβ
  pIC50: 8.15
mTOR; [2]
  pIC50: 6.24

## C[C@H]1OC(=O)N(c2cc(-c3cnc(N)nc3C(F)(F)F)nc(N3CCOC[C@@H]3C)n2)[C@H]1CO [Example 10, (4S,5R)-3-[2′-Amino-2-((S)-3-methyl-morpholin-4-yl)-4′-trifluoromethyl-[4,5′]bipyrimidinyl-6-yl]-4-hydroxymethyl-5-methyl-oxazolidin-2-one]
Human PI3Kα; [1]
  PI3Ka/ IC50: 0.008 umol I-1
Human PI3Kβ
  pIC50: 7.42
mTOR; [2]
  pIC50: 5.69
mTOR; second value / 3 of the 4 values / 3 of the 5 values as per footnote, read-out: mTOR S6K(T389)_TSC1ko IC50, further individual values (footnotes)
  pIC50: < 5.64

## CC1(C)OC(=O)N(c2cc(-c3cnc(N)nc3C(F)(F)F)nc(N3CCOCC3)n2)[C@H]1CO [Example 2, (S)-3-(2′-Amino-2-morpholin-4-yl-4′-trifluoromethyl-[4,5′]bipyrimidinyl-6-yl)-4-hydroxymethyl-5,5-dimethyl-oxazolidin-2-one]
Human PI3Kα; [1]
  PI3Ka/ IC50: 0.023 umol I-1
Human PI3Kβ
  pIC50: 7.70
